In patent US8466678B2, “Method and apparatus for enhanced in vivo MRI imaging” (Battelle Memorial Institute, priority 2009, dated 2013):

Tests used:
[1] = Body weight and animal welfare after bleomycin instillation; type: in vivo, Sprague-Dawley rats
Description: Animal handling and treatment procedures followed a protocol approved by the Institutional Animal Care and Use Committee. A total of 18 male Sprague-Dawley rats weighing 196±8 g were used. They were divided into three groups of n=6: control, low-dose (LD), and high-dose (HD). A single animal per dose group died immediately after dosing. Therefore, each group was left with n=5. No additional unanticipated mortality occurred for the duration of the experiment.
In brief, rats were first weighed then injected subcutaneously with 0.02 mL/kg body weight (BW) glycopyrrolate to inhibit oral secretions and facilitate insertion of an endotracheal tube. After 10-15 minutes, animals were anesthetized with 3-4% isoflurane in oxygen-enriched air (30% O2, 70% N2).
Other than the initial weight loss, no other outward signs of distress were observed.

lungs of live rats = test: Proton MRI (S0/T2 bivariate analysis) of lungs after intratracheal bleomycin instillation; type: in vivo, Sprague-Dawley rats
Experimental: In these experiments, three groups of Sprague-Dawley rats (n=5) were instilled intratracheally with bleomycin (2.5 U/kg or 3.5 U/kg) in saline or with saline only. Rats were imaged at 2.0 T using a multi-slice Carr-Purcell-Meilboom-Gill (CPMG) sequence with 6 ms echo spacing. Signal intensity (S0) and T2 were calculated on a pixel-by-pixel basis using images collected before dosing and 1, 2, 4, and 7 weeks after. At each time point, data from dosed animals were compared to controls, and bivariate statistical analysis was employed to classify image pixels containing abnormal tissue. At week 7, pulmonary function tests were performed, then all rats were sacrificed, left lungs were formalin fixed and tri-chrome stained for histological analysis of collagen content, and right lungs were used to measure water and hydroxyproline (collagen) content.
Animal handling and treatment procedures followed a protocol approved by the Institutional Animal Care and Use Committee. A total of 18 male Sprague-Dawley rats weighing 196±8 g were used. […]
MRI Analysis. Images were reconstructed using a standard 2D Fourier transform, then they were read into Mathematica 6.0 (Wolfgram Research, Champaign, Ill.) for further analysis. […] The mean background noise was measured from the first image of each stack. […]
Following segmentation, data for each rat at each time point were written to a columnar data file that contained S0, T2, slice number, and the corresponding pixel coordinates. […] A scatter plot of T2 (y-axis) vs. S0 (x-axis) was then generated to show the clustering of the data and the relationship between the measured parameters (for example, see FIG. 2A). Using a Mathematica script and bivariate statistical analysis, an ellipsoid was calculated that encircled ˜95% of the data points that were heretofore defined as “normal” lung with 95% confidence.
Each dosed animal was compared to the control group at the same time point, and data points within the ellipsoid were deleted as shown in FIG. 4B. The percentage of total pixels that were “abnormal” was calculated for each animal at each time point. […]

In the case of bleomycin sulfate, the breathing under anesthesia ([1]; 3.5 U/kg BW (HD), weeks 1, 2 and 4) is reported as “struggle with breathing under anesthesia”, the body weight change ([1]; both dose groups (2.5 and 3.5 U/kg BW), first week) is reported as “lost a significant amount of weight” and the “response of the LD group” value (lungs of live rats; 2.5 U/kg BW intratracheal (LD), after the first two weeks of the study) is reported as “very mild response”. For the same substance, the “percentage of "abnormal" pixels vs control rats” value (lungs of live rats; 2.5 U/kg BW intratracheal (LD), by week 4) was “essentially indistinguishable from the control rats” and the “response (fraction of "abnormal" pixels) compared with LD rats” value (lungs of live rats; 3.5 U/kg BW intratracheal (HD), throughout the experiment (7 weeks)) was “stronger response”.
